The record followed here is patent US10703764B2, “Benzopiperazine compositions as BET bromodomain inhibitors” (FORMA Therapeutics, Inc., priority 2013, dated 2020).

SMILES strings stand for the structures.

One assay concerns the target T1, BRD4 BD1 (Homo sapiens, UniProt O60885).
T1 construct: made in house
The assay can be described thus: AlphaScreen binding assay, BRD4 Bromodomain 1. A digest of the protocol:
(§1)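 Compound dilution series were mixed with His-tagged BRD4 bromodomain and biotinylated tetra-acetylated H4 (1-21) peptide at pH 7.3 (BD1 and peptide at 50 nM, BD2 and peptide at 100 nM). Donor and acceptor beads were then added, and plates were equilibrated at least 1 h before reading. IC50 values were fitted with a four-parameter logistic model.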
For orientation: Bead proximity is the source of the signal in Alpha formats.

The test system of a further assay is MV4-11 cells. The assay can be described thus: Oncology cell growth assay (3-day proliferation, CellTiter-Glo). The class given is cell-based. The note with it: Homo sapiens, MV4-11, 72 h, AML cell line MV4-11, 72 hours, compounds grouped by IC50 range, read-out: MV4-11 IC50 (inhibition of proliferation, gIC50). A digest of the protocol: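 A 3-day proliferation test used MV4-11 cells seeded at 3000 per well with eight compound concentrations (10 μM top, 3-fold dilution) at 37° C in 5% CO2. CellTiter-Glo luminescence defined viable cell signal. A four-parameter logistic curve against DMSO and background wells gave the gIC50.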

Another assay deals with T2, BRD4 BD2 (Homo sapiens, UniProt O60885).
T2 construct: made in house
The assay can be described thus: AlphaScreen binding assay, BRD4 Bromodomain 2. A digest of the protocol: as §1

In the case of `COc1ccc(-c2ccc3c(c2)N(C(=O)OC2CCCCC2)C[C@H](C)N3C(C)=O)cc1NS(C)(=O)=O` [Example I-1271], the IC50 at BRD4 BD1 was 100 to 1000 nM; in the assay on MV4-11 cells, less than 100 nM; at BRD4 BD2, 50 to 500 nM.

Turning to `CC(=O)N1c2ccc(-c3cnn(Cc4cncnc4)c3)cc2N(C(=O)C2CC2)C[C@@H]1C` [Example I-128, (S)-1-(4-(cyclopropanecarbonyl)-2-methyl-6-(1-(pyrimidin-5-ylmethyl)-1H-pyrazol-4-yl)-3,4-dihydroquinoxalin-1(2H)-yl)ethanone], the IC50 is 1000 to 10000 nM at BRD4 BD1, 100 to 500 nM in the assay with MV4-11 cells and less than 50 nM on BRD4 BD2.

In the case of `CC(=O)N1c2ccc(-c3cccc(S(=O)(=O)N(C)C)c3)cc2N(C(=O)C2CCC2)C[C@@H]1C` [Example I-1047], the IC50 on BRD4 BD1 was 1000 to 10000 nM; with MV4-11 cells it was more than 500 nM; at BRD4 BD2, 50 to 500 nM.

As for `COC(=O)N1c2ccc(-c3cnn(C4COC4)c3)cc2N(C(=O)OC(C)C)C[C@@H]1C` [Example I-326], the IC50 on BRD4 BD1 is 100 to 1000 nM; with MV4-11 cells it was more than 500 nM; at BRD4 BD2, 50 to 500 nM.

For `COc1ccc(-c2ccc3c(c2)N(C(=O)C2CC2)C[C@H](C)N3C(C)=O)cc1N1CCCS1(=O)=O` [Example I-1167], the IC50 at BRD4 BD1 was in the range of 100 to 1000 nM; in the assay on MV4-11 cells, 100 to 500 nM; on BRD4 BD2, 50 to 500 nM.

For the compound `CC(=O)N1c2ccc(-c3cnn(CC4COC4)c3)cc2N(C(=O)OC(C)C)C[C@@H]1C` [Example I-642], the IC50 fell in the range of 100 to 1000 nM on BRD4 BD1, 100 to 500 nM in the assay with MV4-11 cells and 50 to 500 nM on BRD4 BD2.

Take `CC(=O)N1c2ccc(-c3cnn(CC(=O)O)c3)cc2N(C(=O)OC(C)C)C[C@@H]1C` [Example I-130, (S)-2-(4-(1-acetyl-4-(isopropoxycarbonyl)-2-methyl-1,2,3,4-tetrahydroquinoxalin-6-yl)-1H-pyrazol-1-yl)acetic acid]: the IC50 on BRD4 BD1 is 100 to 1000 nM; in the assay with MV4-11 cells it was more than 500 nM; at BRD4 BD2 it was 50 to 500 nM.

For `CC(=O)N1c2ccc(-c3cccc(S(N)(=O)=O)c3)cc2N(C(=O)OC2CCOCC2)C[C@@H]1C` [Example I-1220], the IC50 lay in the range of 100 to 1000 nM on BRD4 BD1, 100 to 500 nM in the assay with MV4-11 cells and 50 to 500 nM at BRD4 BD2.

As for `COc1c(OC(=O)N2C[C@H](C)N(C(C)=O)c3ccc(-c4cnn(C5CC5)c4)cc32)ccnc1C` [Example I-522], the figures for the IC50 at BRD4 BD1, with MV4-11 cells and at BRD4 BD2 were 100 to 1000 nM, less than 100 nM and 50 to 500 nM, respectively.

Regarding `CC(=O)N1c2ccc(-c3cnn(C4CC4)c3)cc2N(C(=O)Oc2ccccc2C)C[C@@H]1C` [Example I-509], the results for the IC50 at BRD4 BD1, with MV4-11 cells and at BRD4 BD2 were 100 to 1000 nM, 100 to 500 nM and 50 to 500 nM, respectively.

Regarding `CC(=O)N1c2ccc(-c3cnn(C[C@@H]4CCNC4)c3)cc2N(C(=O)OC(C)C)C[C@@H]1C` [Example I-687], the IC50 is 100 to 1000 nM at BRD4 BD1, 100 to 500 nM with MV4-11 cells and less than 50 nM on BRD4 BD2.

On to `CC(=O)N1c2ccc(-c3ccc(C(=O)N4CC[C@H](N(C)C)C4)cc3)cc2N(C(=O)OC(C)C)C[C@@H]1C` [Example I-543], for which the IC50 was less than 100 nM at BRD4 BD1, less than 100 nM in the assay with MV4-11 cells and less than 50 nM at BRD4 BD2.

`CC(=O)N1c2ccc(-c3cnn(C4CNC4)c3)cc2N(C(=O)OC(C)C)C[C@@H]1C` [Example I-356]: the IC50 was 100 to 1000 nM at BRD4 BD1, 100 to 500 nM in the assay on MV4-11 cells and less than 50 nM at BRD4 BD2.

Regarding `CC(C)OC(=O)N1C[C@H](C)N(C(=O)C2CC2)c2ccc(-c3cnn(CC4CCC4)c3)cc21` [Example I-618], the IC50 was 1000 to 10000 nM at BRD4 BD1, 100 to 500 nM in the assay on MV4-11 cells and more than 500 nM at BRD4 BD2.

For `CC(=O)N1c2ccc(-c3cnn(C[C@H]4CCNC4)c3)cc2N(C(=O)OC(C)C)C[C@@H]1C` [Example I-688], the IC50 was in the range of 100 to 1000 nM on BRD4 BD1, 100 to 500 nM with MV4-11 cells and 50 to 500 nM at BRD4 BD2.

Consider `CC(=O)N1c2ccc(-c3ccc(N(C)C)cc3)cc2N(C(=O)c2ccco2)C[C@@H]1C` [Example I-871], for which the IC50 at BRD4 BD1 is 100 to 1000 nM; in the assay on MV4-11 cells it was 100 to 500 nM; on BRD4 BD2, less than 50 nM.

Consider `CC(=O)N1c2ccc(-c3ccc4c(c3)CCN4S(C)(=O)=O)cc2N(C(=O)OC(C)C)C[C@@H]1C` [Example I-348], for which the IC50 on BRD4 BD1 was 100 to 1000 nM; in the assay with MV4-11 cells, 100 to 500 nM; on BRD4 BD2, less than 50 nM.

Turning to `CC(=O)N1c2ccc(-c3cnn(C4CC4)c3)cc2N(C(=O)Oc2ccc3ncccc3c2)C[C@@H]1C` [Example I-512], the IC50 at BRD4 BD1 is less than 100 nM; in the assay with MV4-11 cells it was less than 100 nM; on BRD4 BD2 it was less than 50 nM.

In the case of `CC(=O)N1c2ccc(-c3ccc(S(=O)(=O)NC(C)(C)C)cc3)cc2N(C(=O)OC2CCOCC2)C[C@@H]1C` [Example I-1266], the IC50 lay in the range of 100 to 1000 nM on BRD4 BD1, 100 to 500 nM with MV4-11 cells and 50 to 500 nM on BRD4 BD2.

For the compound `CC(=O)N1c2ccc(-c3ccc(NS(=O)(=O)C4CC4)cc3)cc2N(C(=O)OC(C)C)C[C@@H]1C` [Example I-347], the IC50 is less than 100 nM on BRD4 BD1, less than 100 nM in the assay on MV4-11 cells and less than 50 nM on BRD4 BD2.

On to `CC(=O)N1c2ccc(-c3cnn(C4CC4)c3)cc2N(C(=O)Oc2cccnc2)C[C@@H]1C` [Example I-510], for which the IC50 is less than 100 nM at BRD4 BD1, 100 to 500 nM in the assay on MV4-11 cells and less than 50 nM at BRD4 BD2.

As to `COc1ccc(F)c(OC(=O)N2C[C@H](C)N(C(C)=O)c3ccc(-c4cnn(C5CC5)c4)cc32)c1` [Example I-524], the IC50 on BRD4 BD1 was 100 to 1000 nM; in the assay with MV4-11 cells, less than 100 nM; on BRD4 BD2, 50 to 500 nM.

As for `CC(=O)N1c2ccc(-c3ccc(C(=O)NCCN(C)C)cc3)cc2N(C(=O)OC(C)C)C[C@@H]1C` [Example I-533], the values for the IC50 at BRD4 BD1, with MV4-11 cells and on BRD4 BD2 were 100 to 1000 nM, less than 100 nM and 50 to 500 nM, respectively.

Regarding `CNS(=O)(=O)c1ccc(-c2ccc3c(c2)N(C(=O)OC2CCOCC2)C[C@H](C)N3C(C)=O)cc1` [Example I-1262], the IC50 at BRD4 BD1 lay within 100 to 1000 nM; in the assay on MV4-11 cells it was 100 to 500 nM; on BRD4 BD2 it was 50 to 500 nM.

As to `CC(=O)N1c2ccc(-c3cnn(CC4(C)COC4)c3)cc2N(C(=O)OC(C)C)C[C@@H]1C` [Example I-605], the IC50 on BRD4 BD1 lay within 100 to 1000 nM; in the assay with MV4-11 cells, 100 to 500 nM; at BRD4 BD2, 50 to 500 nM.

With `CCOC(=O)N1C[C@H](C)N(C(C)=O)c2ccc(-c3ccc4c(c3)CCCN4S(C)(=O)=O)cc21` [Example I-1159], the results for the IC50 at BRD4 BD1, in the assay with MV4-11 cells and at BRD4 BD2 were 100 to 1000 nM, 100 to 500 nM and 50 to 500 nM, respectively.

`COc1ccc(C#N)cc1OC(=O)N1C[C@H](C)N(C(C)=O)c2ccc(-c3cnn(C4CC4)c3)cc21` [Example I-526]: the IC50 at BRD4 BD1 fell in the range of 100 to 1000 nM; with MV4-11 cells, 100 to 500 nM; at BRD4 BD2, 50 to 500 nM.

Consider `CC(=O)N1c2ccc(-c3ccc(S(=O)(=O)C4CC4)cc3)cc2N(C(=O)c2ccco2)C[C@@H]1C` [Example I-291], for which the IC50 at BRD4 BD1 is 100 to 1000 nM; in the assay on MV4-11 cells it was 100 to 500 nM; on BRD4 BD2, less than 50 nM.

For the compound `CC(=O)N1c2ccc(-c3ccc(-c4ncc[nH]4)cc3)cc2N(C(=O)c2ccco2)CC1C` (stereo not drawn) [Example I-429], the IC50 at BRD4 BD1 is 100 to 1000 nM; in the assay on MV4-11 cells, 100 to 500 nM; at BRD4 BD2, less than 50 nM.

As for `CC(=O)N1c2ccc(-c3ccc(C(=O)N4CCC[C@@H](N)C4)cc3)cc2N(C(=O)OC(C)C)C[C@@H]1C` [Example I-589], the values for the IC50 on BRD4 BD1, in the assay with MV4-11 cells and at BRD4 BD2 were 100 to 1000 nM, 100 to 500 nM and 50 to 500 nM, respectively.
